Laboratory results reported in the NIST ThermoML archive (doi:10.1021/je034102r).

Assay: molar heat capacity at constant pressure
Conditions: 101.33 kPa, Liquid, heat bridge-scanning calorimeter

CCCCn1cc[n+](C)c1.F[P-](F)(F)(F)(F)F [1-butyl-3-methylimidazolium hexafluorophosphate]
Conditions | molar heat capacity at constant pressure [J/K/mol]
353.76 K | 441.34
353.89 K | 441.34
354.01 K | 441.62
354.29 K | 441.9
354.41 K | 441.9
354.54 K | 441.62
354.66 K | 441.9
354.79 K | 442.19
354.91 K | 441.9
355.04 K | 442.19
355.16 K | 442.47
355.29 K | 442.47
355.41 K | 442.47
355.54 K | 442.47
355.81 K | 442.76
355.94 K | 443.04
356.06 K | 442.76
356.19 K | 442.76
356.31 K | 443.04
356.44 K | 443.04
356.56 K | 443.32
356.69 K | 443.32
356.81 K | 443.61
357.1 K | 443.32
357.24 K | 443.61
357.36 K | 443.61
357.49 K | 443.61
357.61 K | 443.61
357.74 K | 443.89
357.86 K | 443.89
357.99 K | 444.18
358.12 K | 444.18
358.24 K | 444.18
358.37 K | 444.18
358.64 K | 444.46
358.76 K | 444.75
358.89 K | 444.46
359.02 K | 444.75
359.14 K | 444.75
359.27 K | 444.75
359.39 K | 445.03
359.52 K | 445.03
359.64 K | 445.31
359.93 K | 445.31
360.05 K | 445.31
360.18 K | 445.6
360.3 K | 445.6
360.43 K | 445.88
360.55 K | 445.88
360.68 K | 445.88
360.8 K | 446.17
360.93 K | 446.17
361.05 K | 446.17
361.18 K | 446.45
361.45 K | 446.45
361.58 K | 446.45
361.7 K | 446.45
361.83 K | 446.45
361.95 K | 446.73
362.08 K | 446.73
362.2 K | 447.02
362.33 K | 447.02
362.45 K | 447.02
362.73 K | 447.02
362.86 K | 447.02
362.98 K | 447.3
363.12 K | 447.3
363.25 K | 447.3
363.37 K | 447.3
363.5 K | 447.59
363.62 K | 447.59
363.75 K | 447.87
363.87 K | 447.59
364 K | 447.87
364.27 K | 447.87
364.4 K | 447.87
364.52 K | 447.87
364.65 K | 448.16
364.77 K | 448.16
364.9 K | 448.16
365.02 K | 448.16
365.15 K | 448.44
365.28 K | 448.16
365.56 K | 448.44
365.69 K | 448.44
365.81 K | 448.72
365.94 K | 448.72
366.06 K | 448.72
366.19 K | 448.72
366.32 K | 448.72
366.44 K | 449.01
366.57 K | 449.01
366.69 K | 449.01
366.82 K | 449.29
367.09 K | 449.29
367.22 K | 449.29
367.34 K | 449.58
367.47 K | 449.86
367.59 K | 449.86
367.72 K | 449.86
367.84 K | 449.86
367.97 K | 449.86
368.1 K | 450.43
368.38 K | 450.14
368.51 K | 450.43
368.63 K | 450.43
368.76 K | 450.43
368.88 K | 450.43
369.02 K | 450.43
369.15 K | 450.43
369.27 K | 450.43
369.4 K | 450.71
369.53 K | 450.71
369.65 K | 450.71
369.92 K | 452.13
370.05 K | 452.13
370.17 K | 451.85
370.3 K | 451.28
370.43 K | 451.57
370.55 K | 451.28
370.68 K | 451.28
370.8 K | 451.57
370.93 K | 451.57
371.21 K | 451.85
371.34 K | 452.13
371.47 K | 452.13
371.59 K | 451.85
371.72 K | 452.13
371.84 K | 451.85
371.97 K | 452.13
372.09 K | 452.13
372.22 K | 452.13
372.35 K | 452.13
372.47 K | 452.7
372.74 K | 452.99
372.87 K | 452.7
372.99 K | 452.7
373.12 K | 452.7
373.25 K | 452.99
373.37 K | 453.56
373.5 K | 453.84
373.62 K | 453.56
373.75 K | 452.7
374.03 K | 453.27
374.16 K | 453.27
374.29 K | 453.27
374.41 K | 453.27
374.54 K | 454.41
374.67 K | 455.26
374.79 K | 454.69
374.92 K | 454.69
375.06 K | 454.69
375.18 K | 454.41
375.31 K | 454.12
375.58 K | 453.84
375.71 K | 453.84
375.83 K | 453.56
375.96 K | 453.84
376.09 K | 454.69
376.21 K | 455.83
376.34 K | 455.83
376.46 K | 455.54
376.59 K | 454.98
376.87 K | 454.41
376.99 K | 454.41
377.12 K | 454.41
377.25 K | 454.98
377.37 K | 455.26
377.5 K | 454.98
377.63 K | 454.69
377.75 K | 454.69
377.88 K | 454.98
378 K | 455.26
378.13 K | 455.54
378.4 K | 455.54
378.53 K | 455.26
378.65 K | 455.54
378.78 K | 455.54
378.91 K | 455.54
379.03 K | 455.54
379.16 K | 455.83
379.29 K | 456.11
379.41 K | 457.53
379.7 K | 456.11
379.83 K | 456.11
379.95 K | 456.4
380.08 K | 456.68
380.21 K | 456.68
380.33 K | 456.68
380.46 K | 456.68
380.59 K | 456.68
